Test results from patent publication US10226458B2, “Pharmaceutical compositions comprising sorbitan esters” (Alkermes Pharma Ireland Limited, priority 2011, dated 2019).
Values belong to the compound of their own block, whether it stands above or below them.

Assays:
rats = test: Subcutaneous injection site reaction model; details: single SC injection, Day 10, formulations comprising sorbitan laurate compared to formulations with no sorbitan laurate (FIGS. 8A, 8B)
[1] = Wettability characterization: free energy of immersion and spreading coefficient of Compound A-7 in injection vehicles; format: physicochemical; details: recrystallized Compound A-7 against the named injection vehicle formulation; predicted from vehicle surface tension and solid surface energy
Text: A surface energy measurement methodology was developed that would allow for facile screening of formulation candidates with minimal use of drug substance. These experiments utilize the surface tension of the injection vehicle and surface energy of the solid to predict the immersional free energy and spreading coefficient between the liquid and the solid.
A force-balance tensiometer (Attension Sigma® 701) with a platinum Wilhelmy plate was used to measure the surface energy (tension) of the vehicle of interest. This was done using a 30 mL sample of the vehicle of interest and taking 8 individual surface tension measurements. The first 3 measurements were discarded as being non-representative of equilibrium conditions, and the remaining measurements were averaged to give the surface tension value. […] To then obtain the polar and non-polar (dispersive) components of the surface tension, a polytetrafluoroethylene (PTFE) contact angle standard (Rame-Hart) was affixed to the tensiometer and the dynamic contact angle was measured. […]
With the total surface tension of the liquid, and the contact angle of the liquid on a non-polar surface with known surface energy attributes, the polar and dispersive components of the surface tension were calculated. […]

[2] = Previous experiments on wetting of Compound A-7 solids load by polysorbate 20; format: physicochemical; details: 25.6 wt % solids load of Compound A-7 bulk recrystallized drug substance
[3] = Solubility of Compound A-7 in vehicles containing varying amounts of sorbitan monolaurate; format: physicochemical; details: 10 mM phosphate buffer, 0.2% polysorbate 20, saline, 0%-0.75% sorbitan laurate, 25° C., HPLC (FIG. 9)
Method: • a. Injection vehicles comprised of ca. 10 mM phosphate buffer, 0.2% polysorbate 20, saline and various amount of sorbitan laurate (0%-0.75%) were prepared. The injection vehicles were stirred for 4 hours before preparing suspension preparation. • b. Approximately 1.25±0.05 g of Compound A-7 were added to 15 mL injection vehicles in a 20-mL glass scintillation vial with a ⅞″× 5/16″ stirring bar. The suspension was vigorously stirred on Chemglass CG-1990-T-50 hotplate at 25° C. which was controlled using a thermal sensor. • c. At each time point, a total of 3 mL of -mixed suspension were transferred into two 1.5-mL centrifuge tubes using a plastic pipette. The tubes were centrifuged at 14,000 rpm for 4 minutes. The supernatant of both tubes were combined and centrifuged again at 14,000 rpm for 4 minutes. The HPLC sample was then prepared with final (2nd) centrifuged supernatant by diluting 0.4 mL supernatant with 0.6 mL THF. • d. Concentration of dissolved Compound A-7 was determined using HPLC.

[4] = cited from earlier work

Compound: Cc1cc2c(s1)Nc1ccccc1N=C2N1CCN(C)CC1.O.O=C(O)c1cc2ccccc2c(Cc2c(O)c(C(=O)O)cc3ccccc23)c1O [olanzapine pamoate]
injection site reaction (weight of excised ISR) (rats): significant reduction in injection site reaction

FREE ENERGY OF IMMERSION [1]: 10 mN/m
SPREADING COEFFICIENT [1]: −83.3 mN/m
Compound: Water

Compound: CCCCCCCCCCCC(=O)OCN1C(=O)CCc2ccc(OCCCCN3CCN(c4cccc(Cl)c4Cl)CC3)cc21 [Compound A-7, (7-(4-(4-(2,3-dichlorophenyl)piperazin-1-yl)butoxy)-2-oxo-3,4-dihydroquinolin-1(2H)-yl)methyl dodecanoate]
polysorbate 20 required to adequately wet the drug substance [2]: at least 0.1%
solubility (concentration of dissolved Compound A-7) [3]: decreases solubility up to 0.5 wt % SML with solubility increasing again above 0.5 wt. %

Compound: O=C1CCc2ccc(OCCCCN3CCN(c4cccc(Cl)c4Cl)CC3)cc2N1 [aripiprazole (free base), 7-{4-[4-(2,3-dichlorophenyl)-1-piperazinyl]butoxy}-3,4-dihydro-2(1H)-quinolinone]
injection site reaction (weight of excised ISR) (rats): significant reduction in injection site reaction
tissue irritation ([4]; following IM and SC injection): unacceptable (moderate to severe) tissue irritation
pharmacokinetic profile ([4]; long-acting injections): prolonged pharmacokinetic profile
